The results in this text go back to ChEMBL document CHEMBL1135788, “Novel structures derived from 2-[[(2-pyridyl)methyl]thio]-1H-benzimidazole as anti-Helicobacter pylori agents, Part 1” (2002).

In brackets after ≈: the same amount, converted by molar mass. Several values for one entry are separate records, joined by “and”; a condition that tells them apart may be missing. Equal entries are not always repeated.

As a reminder, the MBC is the smallest concentration meeting the test's criterion for killing.

For one assay, the system named is Helicobacter pylori. Kind of assay: (§1) Minimum bactericidal concentration against Helicobacter pylori ATCC 43504. The assay is classed as functional.
In turn, `Cc1c(OCC(C)C)ccnc1CNc1nc2ccccc2[nH]1` had an MBC of 26 µM (≈ 8.07 µg/mL).

A further assay deals with Escherichia coli. Kind of assay: Minimum bactericidal concentration against Escherichia coli K-12. It is filed as functional.
Turning to `Cc1c(OCC(C)C)ccnc1CNc1nc2ccccc2[nH]1`, the MBC is 206 µM (≈ 63.9 µg/mL).

The test system of another assay is Staphylococcus aureus. Briefly: Minimum bactericidal concentration against Staphylococcus aureus CCUG 1800T. It is filed as functional.
In turn, `Cc1c(OCC(C)C)ccnc1CNc1nc2ccccc2[nH]1` came in with an MBC of 64 µg/mL (≈ 206 µM).

Another assay deals with Helicobacter pylori. The description is as §1. The assay is classed as functional.
`COCCOCCOCCSc1cccc(CNc2nc3ccccc3[nH]2)c1C` came in with an MBC of 32 µg/mL (≈ 77 µM).

The subject of the next assay is Helicobacter pylori. Kind of assay: Minimum bactericidal concentration against Helicobacter pylori ATCC 43504; range 2-4 ug/mL. It is filed as functional.
The molecule `Cc1ncc([N+](=O)[O-])n1CCO` [METRONIDAZOLE] displayed an MBC of 2 µg/mL (≈ 11.7 µM).

The test system of the next assay is Helicobacter pylori. Described as §1. It is filed as functional. This is another data set of the same source.
Regarding `Cc1c(CCc2cc3ccccc3o2)cccc1OCC(C)C`, the MBC was 128 µg/mL and 415 µM.
The same measure, in the same setting: the figure for `Cc1c(CCc2nc3ccccc3o2)cccc1OCC(C)C` is 16 µg/mL and 52 µM; for `CC1(C)S[C@@H]2[C@H](NC(=O)[C@H](N)c3ccc(O)cc3)C(=O)N2[C@H]1C(=O)O` [AMOXICILLIN] it is 0.05 µg/mL; for `Cc1c(COc2nc3ccccc3o2)cccc1OCC(C)C` it is 32 µg/mL and 103 µM.
Same read-out and setting: next, `COCCOCCOCCSc1cccc(CNc2nc3ccccc3s2)c1C`: 4 µg/mL and 9.25 µM.
Still for that read-out and setting: next, `Cc1c(CNc2nc3ccccc3[nH]2)cccc1SCCN1CCOCC1`: 32 µg/mL and 107 µM; `Cc1c(CSc2nc3ccccc3[nH]2)cccc1SCCN1CCOCC1`: 1 µg/mL and 2.5 µM; `Cc1c(OCC(C)C)ccnc1CCc1nc2ccccc2[nH]1`: 32 µg/mL and 103 µM.
Take `COCCOCCOCCOCCOCCSc1cccc(CSc2nc3cc(N)ccc3[nH]2)c1C`: the MBC is 8 µg/mL and 15 µM.
As to `Cc1c(OCC(C)C)ccnc1CNc1nc2ccccc2[nH]1`, the MBC is 8 µg/mL.
For `Cc1c(CCc2nc3ccccc3s2)cccc1OCC(C)C`, the MBC is 32 µg/mL and 98 µM.
Same read-out and setting: the figure for `Cc1c(CSc2nc3ccccc3[nH]2)cccc1OCCN1CCOCC1` is 16 µg/mL and 42 µM; for `Cc1c(CSc2cc3ccccc3[nH]2)cccc1OCC(C)C` it is 32 µg/mL and 98 µM; for `Cc1c(OCC(C)C)ccnc1CNc1nc2ccccc2o1` it is 32 µg/mL and 103 µM.
Regarding `Cc1c(CNc2nc3ccccc3s2)cccc1OCC(C)C`, the MBC was > 128 µg/mL and > 392 µM.
Consider `COCCOCCOCCOCCOCCSc1cccc(CSc2nc3cc(CO)ccc3[nH]2)c1C`, for which the MBC was 8 µg/mL and 15 µM.
Take `Cc1c(COc2nc3ccccc3s2)cccc1OCC(C)C`: the MBC was 128 µg/mL and 391 µM.
Turning to `Cc1c(CSc2nc3ccccc3[nH]2)cccc1SCCn1c([N+](=O)[O-])cnc1C`, the MBC is 2 µg/mL and 4.55 µM.
`Cc1c(OCC(C)C)ccnc1CCc1nc2ccccc2o1`: the MBC is 32 µg/mL and 103 µM.
In the case of `CCOC(=O)c1ccc2[nH]c(SCc3cccc(SCCOCCOCCOCCOCCOC)c3C)nc2c1`, the MBC was 2 µg/mL and 3.37 µM.
Take `CCC(=O)c1ccc2[nH]c(SCc3cccc(SCCOCCOCCOCCOCCOC)c3C)nc2c1`: the MBC is 2 µg/mL and 3.47 µM.
Same read-out and setting: next, `COCCOCCOCCOCCOCCSc1cccc(CSc2nc3ccccc3[nH]2)c1C`: 0.5 µg/mL and 0.96 µM.
The same measure, in the same setting: next, `Cc1c(CSc2nc3ccccc3o2)cccc1OCC(C)C`: 64 µg/mL and 195 µM; `COCCOCCOCCSc1cccc(CSc2nc3ccccc3[nH]2)c1C`: 0.5 µg/mL and 1.16 µM.
Same read-out and setting: next, `Cc1c(CNc2nc3ccccc3o2)cccc1OCC(C)C`: > 128 µg/mL and > 412 µM.
Consider `Cc1c(OCC(C)C)ccnc1COc1nc2ccccc2o1`, for which the minimal bactericidal concentration (MBC) was 16 µg/mL and 51 µM.
On the same count and under the same terms, the figure for `Cc1c(OCC(C)C)ccnc1CSc1nc2ccccc2o1` is 32 µg/mL and 81 µM; for `CC[C@H]1OC(=O)[C@H](C)[C@@H](O[C@H]2C[C@@](C)(OC)[C@@H](O)[C@H](C)O2)[C@H](C)[C@@H](O[C@@H]2O[C@H](C)C[C@H](N(C)C)[C@H]2O)[C@](C)(OC)C[C@@H](C)C(=O)[C@H](C)[C@@H](O)[C@]1(C)O` [CLARITHROMYCIN] it is 0.1 µg/mL.
Same read-out and setting: the figure for `Cc1c(OCC(C)C)ccnc1CSc1nc2ccccc2s1` is 32 µg/mL and 93 µM; for `Cc1c(CSc2nc3ccccc3[nH]2)cccc1SCCn1cncn1` it is 4 µg/mL and 10.5 µM.
Still for that read-out and setting: next, `Cc1c(CCc2cc3ccccc3[nH]2)cccc1OCC(C)C`: 16 µg/mL and 52 µM.
For the molecule `Cc1c(OCC(C)C)ccnc1CSc1nc2ccccc2[nH]1`, the MBC was 1 µg/mL and 3 µM.
On to `Cc1c(CCc2nc3ccccc3[nH]2)cccc1OCC(C)C`, for which the MBC is 8 µg/mL and 26 µM.
On the same count and under the same terms, the figure for `COCCOCCOCCOCCOCCOc1cccc(CSc2nc3ccccc3[nH]2)c1C` is 2 µg/mL and 3.96 µM; for `Cc1c(OCC(C)C)ccnc1CCc1cc2ccccc2o1` it is 16 µg/mL and 52 µM; for `Cc1c(CSc2nc3ccccc3s2)cccc1OCC(C)C` it is > 128 µg/mL and > 373 µM.
`Cc1c(CSc2nc3ccccc3[nH]2)cccc1SCC(C)C`: the MBC is 4 µg/mL and 8.76 µM.
The same measure, in the same setting: next, `Cc1c(OCC(C)C)ccnc1CNc1nc2ccccc2s1`: 32 µg/mL and 98 µM.
Take `Cc1c(CNc2nc3ccccc3[nH]2)cccc1OCC(C)C`: the MBC was 2 µg/mL and 6.5 µM.
For `Cc1c(OCC(C)C)ccnc1CCc1nc2ccccc2s1`, the MBC is 16 µg/mL and 49 µM.
As to `Cc1c(CSc2nc3ccccc3[nH]2)cccc1OCC(C)C`, the minimum bactericidal concentration (MBC) was 8 µg/mL and 19 µM.
Same read-out and setting: the figure for `Cc1c(OCC(C)C)ccnc1CSc1cc2ccccc2[nH]1` is 4 µg/mL and 12 µM; for `COCCOCCOCCOc1cccc(CSc2nc3ccccc3[nH]2)c1C` it is 4 µg/mL and 9.6 µM; for `Cc1c(OCC(C)C)ccnc1COc1nc2ccccc2s1` it is 16 µg/mL and 49 µM.
The same measure, in the same setting: next, `COCCOCCOCCSc1cccc(CNc2nc3ccccc3[nH]2)c1C`: 77 µM.
